Data from ChEMBL document CHEMBL1201862, “PubChem BioAssay data set” (2004).
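Cells were grown in 96-well plates and exposed to each compound for 48 hours at five concentrations; endpoints were interpolated linearly between bracketing concentrations, or set to the highest concentration if not reached. GI50 is the concentration that inhibits growth by half.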 Activity calls are given as the source filed them. No stated cut-off is given here; in the data, active = GI50 up to about 1.1 µM and inactive = higher.

Tests used:
Assay in all cases: inhibition of tumour cell growth, NCI panel, 48 h
K562 = tested on: K562
HCC 2998 = tested on: HCC 2998
U-251 = tested on: U-251
RPMI-8226 = tested on: RPMI-8226
OVCAR-4 = tested on: OVCAR-4
SF-539 = tested on: SF-539
SNB-19 = tested on: SNB-19
HOP-62 = tested on: HOP-62
SF-295 = tested on: SF-295
NCI-H226 = tested on: NCI-H226
OVCAR-3 = tested on: OVCAR-3
SK-MEL-5 = tested on: SK-MEL-5
SK-MEL-2 = tested on: SK-MEL-2
IGROV-1 = tested on: IGROV-1
OVCAR-5 = tested on: OVCAR-5
SNB-75 = tested on: SNB-75

Measured: GI50

O=C(c1nc2ccccc2nc1O)C(O)c1ccccc1 (centres undefined)
inactive: K562 40.3 µM | HCC 2998 53.7 µM | U-251 43.7 µM | RPMI-8226 53.5 µM | OVCAR-4 95.3 µM | SF-539 44.1 µM | SNB-19 > 100 µM | HOP-62 > 100 µM | SF-295 > 100 µM | NCI-H226 76.7 µM | OVCAR-3 > 100 µM | SK-MEL-5 > 100 µM | SK-MEL-2 > 100 µM | IGROV-1 > 100 µM | OVCAR-5 > 100 µM

CN(CCO)c1nc(N)cc(=O)[nH]1
inactive: K562 > 100 µM | SNB-75 38.7 µM | HCC 2998 > 100 µM | U-251 > 100 µM | RPMI-8226 > 100 µM | SF-539 > 100 µM | SNB-19 > 100 µM | HOP-62 > 100 µM | SF-295 > 100 µM | NCI-H226 > 100 µM | OVCAR-3 > 100 µM | SK-MEL-5 > 100 µM | SK-MEL-2 > 100 µM | IGROV-1 > 100 µM | OVCAR-5 > 100 µM

O=C(c1ccccc1)c1ccc(OCCOc2ccc(Nc3ccccc3)cc2)cc1
inactive: K562 > 100 µM | SNB-75 15.6 µM | HCC 2998 > 100 µM | U-251 16.6 µM | OVCAR-4 17.7 µM | SF-539 24.5 µM | SNB-19 27.7 µM | HOP-62 23.9 µM | SF-295 27.2 µM | NCI-H226 33.6 µM | OVCAR-3 37.2 µM | SK-MEL-5 21.9 µM | SK-MEL-2 38.3 µM | IGROV-1 52.2 µM | OVCAR-5 > 100 µM

CC1C[C@H](OC(N)=O)C(C)CC1=O (some centres undefined)
inactive: K562 > 100 µM | SNB-75 > 100 µM | HCC 2998 > 100 µM | U-251 > 100 µM | RPMI-8226 > 100 µM | OVCAR-4 > 100 µM | SF-539 > 100 µM | SNB-19 > 100 µM | HOP-62 > 100 µM | SF-295 > 100 µM | OVCAR-3 > 100 µM | SK-MEL-5 > 100 µM | SK-MEL-2 > 100 µM | IGROV-1 > 100 µM | OVCAR-5 > 100 µM

NC(=O)CCC(NC(=O)Cc1ccccc1)C(=O)O (centres undefined)
inactive: K562 > 2470 µM | SNB-75 724 µM | HCC 2998 > 2470 µM | U-251 2000 µM | RPMI-8226 1030 µM | OVCAR-4 1390 µM | SF-539 1420 µM | SNB-19 > 2470 µM | HOP-62 1700 µM | SF-295 1740 µM | OVCAR-3 > 2470 µM | SK-MEL-5 > 2470 µM | SK-MEL-2 > 2470 µM | IGROV-1 1610 µM | OVCAR-5 > 2470 µM

Cn1cc(NC(=O)c2cc(NC(=O)CCCCCCCCCC(=O)Nc3cc(C(=O)Nc4cc(C(=O)NCCC(=N)N)n(C)c4)n(C)c3)cn2C)cc1C(=O)NCCC(=N)N
inactive: K562 14.3 µM | SNB-75 27.9 µM | U-251 27.4 µM | RPMI-8226 8.26 µM | OVCAR-4 34.8 µM | SF-539 37.9 µM | SNB-19 30.8 µM | HOP-62 24.5 µM | SF-295 22.1 µM | NCI-H226 > 100 µM | OVCAR-3 19.2 µM | SK-MEL-5 14.7 µM | SK-MEL-2 29.3 µM | IGROV-1 41.5 µM | OVCAR-5 32.7 µM

C/C(CC(=O)Nc1cccc(Cl)c1C)=N\NC(N)=S
inactive: K562 > 100 µM | SNB-75 > 100 µM | HCC 2998 > 100 µM | U-251 > 100 µM | RPMI-8226 > 100 µM | SF-539 > 100 µM | HOP-62 > 100 µM | SF-295 > 100 µM | NCI-H226 > 100 µM | OVCAR-3 > 100 µM | SK-MEL-5 > 100 µM | SK-MEL-2 > 100 µM | IGROV-1 > 100 µM | OVCAR-5 > 100 µM

CCOP12(OCC)NC(=O)OC1(C(F)(F)F)c1ccccc1O2 (centres undefined)
inactive: K562 > 100 µM | SNB-75 82.8 µM | OVCAR-4 > 100 µM | SF-539 > 100 µM | SNB-19 > 100 µM | SF-295 > 100 µM | NCI-H226 > 100 µM | OVCAR-3 > 100 µM | SK-MEL-5 > 100 µM | SK-MEL-2 > 100 µM | IGROV-1 > 100 µM

C#CCSc1nc(N)c2ncn(C3OC(CO)C(O)C3O)c2n1 (centres undefined)
inactive: K562 > 100 µM | HCC 2998 > 100 µM | U-251 > 100 µM | RPMI-8226 > 100 µM | OVCAR-4 > 100 µM | SNB-19 > 100 µM | HOP-62 > 100 µM | SF-295 > 100 µM | OVCAR-3 > 100 µM | SK-MEL-5 > 100 µM | IGROV-1 > 100 µM

CC1=NN(c2ccccc2)C(=O)/C1=C\c1ccc([N+](=O)[O-])cc1
inactive: K562 28.6 µM | SNB-75 25.5 µM | HCC 2998 25.6 µM | U-251 41.3 µM | RPMI-8226 23.6 µM | OVCAR-4 19.3 µM | SF-539 22.4 µM | SNB-19 30.5 µM | SF-295 31.1 µM | SK-MEL-5 22.4 µM | SK-MEL-2 21.9 µM | IGROV-1 29.6 µM | OVCAR-5 24.5 µM

C=C1CCC2(C(C)=O)COC1(C)O2 (centres undefined)
inactive: K562 > 100 µM | SNB-75 > 100 µM | U-251 > 100 µM | RPMI-8226 > 100 µM | SF-539 > 100 µM | SNB-19 > 100 µM | HOP-62 > 100 µM | SF-295 > 100 µM | NCI-H226 > 100 µM | OVCAR-3 > 100 µM | SK-MEL-5 > 100 µM | IGROV-1 > 100 µM

O=S(O)CCCCCSSCCCCSSCCCCCS(=O)O
inactive: K562 48.1 µM | SNB-75 30.8 µM | U-251 > 100 µM | RPMI-8226 97.5 µM | OVCAR-4 > 100 µM | SF-539 > 100 µM | SNB-19 > 100 µM | HOP-62 > 100 µM | SF-295 > 100 µM | OVCAR-3 > 100 µM | SK-MEL-5 > 100 µM | SK-MEL-2 > 100 µM | IGROV-1 > 100 µM | OVCAR-5 > 100 µM

Cc1ccc(/C=C/C(=O)c2sc(-c3nc(C)c(C(=O)/C=C/c4ccc(C)cc4)s3)nc2C)cc1
inactive: K562 > 100 µM | SNB-75 86.5 µM | HCC 2998 > 100 µM | U-251 > 100 µM | RPMI-8226 > 100 µM | SF-539 > 100 µM | HOP-62 > 100 µM | SF-295 > 100 µM | NCI-H226 > 100 µM | OVCAR-3 > 100 µM | SK-MEL-5 > 100 µM | SK-MEL-2 > 100 µM | IGROV-1 > 100 µM | OVCAR-5 > 100 µM

COC1C2c3ccccc3C(C#N)(Cc3ccc4c(c32)OCO4)N1C(=O)c1ccccc1 (centres undefined)
inactive: K562 5.11 µM | SNB-75 50.6 µM | HCC 2998 37.9 µM | U-251 37.7 µM | RPMI-8226 16.3 µM | SF-539 > 100 µM | SNB-19 46.6 µM | HOP-62 14.4 µM | SF-295 > 100 µM | NCI-H226 12.5 µM | OVCAR-3 42.5 µM | SK-MEL-5 3.76 µM | SK-MEL-2 46.8 µM | IGROV-1 13 µM | OVCAR-5 > 100 µM
